Measurements from US8937091B2 (Japan Science and Technology Agency, priority 2009, dated 2015).

Legend:
[1] = system: IICR (IP3 induced calcium release) in CHO cells; assay: Assay of IICR (IP3 induced calcium release)-inhibiting action; type: cell-based, Chinese hamster
Procedure, shortened: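 Inhibition (%) of the intracellular calcium increase triggered by 10 μM ATP, measured in CHO cells in BSS with calcium. Compound given 1 min after the buffer exchange and 2 min before ATP; values reported per compound concentration.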

TGase = TGase (Cavia porcellus, UniProt P08587); type: biochemical
Procedure: An enzyme reaction solution (0.1 ml) (100 mM HEPES-NaOH, pH 7.5, 1 mM CaCl2, 20 μM monodansyl cadaverine, 0.05 mg/ml N,N-dimethylcasein, 5 μg/ml TGase) was introduced into wells of a 96-well plate (Nunc, 96 Well Black Plate with Clear Bottom). A test compound was added in concentrations of 0.3, 1.0, 3.0, 10, and 30 μM. The solution and the compound were sufficiently mixed while preventing foaming. The plate was set in the fluorescence drug screening system FDSS 3000 (Hamamatsu Photonics K.K.). TGase-inhibiting activity of the compound was calculated by assaying changes in fluorescence wavelength (at 340 nm) per unit time. […] The assay level at which TGase activity decreased by half in the presence of the test compound was designated as TG 50.
Hereafter, the numerals in parentheses written after the TG level, the SOCE level, and the IICR level correspond to the test compound concentrations. The number following the name of each title compound used in the Examples below represents a compound ID number designated arbitrarily by the present inventors.

| Compound | IICR-inhibiting activity compared with SOCE-inhibiting activity (in words) [1] | TG-activity-inhibiting action or protein-crosslinking-inhibiting action (in words) (TGase) |
| --- | --- | --- |
| 2-(N-t-butylbenzyl)aminoethyl-5-bromo-2-thiophenylketone [Example 8778] | higher than SOCE-inhibiting activity | strongly |
| CC(C)N(CCC(=O)c1ccc(Cc2ccccc2)cc1)Cc1ccccc1 [Example 8285, 2-(N-isopropylbenzyl)aminoethyl-4-benzylphenylketone] | higher than SOCE-inhibiting activity | strongly |
| CC(C)N(CCC(=O)c1ccccn1)Cc1ccccc1 [Example 8305, 2-(N-isopropylbenzyl)aminoethyl-2-pyridylketone] | higher than SOCE-inhibiting activity | strongly |
| CC(C)N(CCC(=O)c1ccco1)Cc1ccccc1 [Example 8370, 2-(N-isopropylbenzyl)aminoethyl-2-furylketone] | higher than SOCE-inhibiting activity | strongly |
| O=C(CCN(CCO)Cc1ccccc1)c1cnccn1 [Example 8397, 2-(N-benzylhydroxyethyl)aminoethyl-2-pyrazylketone] | higher than SOCE-inhibiting activity | strongly |
| Cc1ccc(C(=O)CCN(CCO)Cc2ccccc2)o1 [Example 8404, 2-(N-benzylhydroxyethyl)aminoethyl-5-methyl-2-furylketone] | higher than SOCE-inhibiting activity | strongly |
| Cc1ccc(C(=O)CCN(Cc2ccccc2)C(C)(C)C)o1 [Example 8405, 2-(N-benzyl-t-butyl)aminoethyl-5-methyl-2-furylketone] | higher than SOCE-inhibiting activity | strongly |
| CCN(CCC(=O)c1ccco1)Cc1ccccc1 [Example 8412, 2-(N-benzylethyl)aminoethyl-2-furylketone] | higher than SOCE-inhibiting activity | strongly |
| CC(C)(C)N(CCC(=O)c1cccs1)Cc1ccccc1 [Example 8638, 2-(N-t-butylbenzyl)aminoethyl-2-thiophenylketone] | higher than SOCE-inhibiting activity | strongly |
| CCc1nccnc1C(=O)CCN(Cc1ccccc1)C(C)C [Example 8656, 2-(N-isopropylbenzyl)aminoethyl-2-(3-ethyl)-pyrazylketone] | higher than SOCE-inhibiting activity | strongly |
| CCc1nccnc1C(=O)CCN(Cc1ccccc1)C(C)(C)C [Example 8658, 2-(N-t-butylbenzyl)aminoethyl-2-(3-ethyl)-pyrazylketone] | higher than SOCE-inhibiting activity | strongly |
| CC(C)N(CCC(=O)c1cc(Cl)sc1Cl)Cc1ccccc1 [Example 8659, 2-(N-isopropylbenzyl)aminomethyl-3-(2,5-dichlorothiophenyl)ketone] | higher than SOCE-inhibiting activity | strongly |
| Cc1nc(C)c(C(=O)CCN(Cc2ccccc2)C(C)C)s1 [Example 8666, 2-(N-benzylisopropyl)aminoethyl-5-(2,4-dimethylthiazolyl)ketone] | higher than SOCE-inhibiting activity | strongly |
| CN(CCC(=O)c1ccncc1)Cc1ccccc1 [Example 8673, 2-(N-methylbenzyl)aminoethyl-4-pyridylketone] | higher than SOCE-inhibiting activity | strongly |
| CC(C)(C)N(CCC(=O)c1cccnc1)Cc1ccccc1 [Example 8702, 2-(N-benzyl-t-butyl)aminoethyl-3-pyridylketone] | higher than SOCE-inhibiting activity | strongly |
| CN(CCO)CCC(=O)c1ccco1 [Example 8707, 2-(N-2-hydroxyethylmethyl)aminoethyl-2-furylketone] | higher than SOCE-inhibiting activity | strongly |
| CC(C)(C)N(CCC(=O)c1nccs1)Cc1ccccc1 [Example 8729, 2-(N-benzyl-t-butyl)aminoethyl-2-thiazolylketone] | higher than SOCE-inhibiting activity | strongly |
| CC(C)(C)N(CCC(=O)c1ccc(Cl)s1)Cc1ccccc1 [Example 8756, 2-(N-t-butylbenzyl)aminoethyl-5-chloro-2-thienylketone] | higher than SOCE-inhibiting activity | strongly |
| CC(C)N(CCC(=O)c1cc2ccccc2s1)Cc1ccccc1 [Example 8759, 2-(N-isopropylbenzyl)aminoethyl-2-benzothienylketone] | higher than SOCE-inhibiting activity | strongly |
| CC(C)(C)N(CCC(=O)c1cc2ccccc2s1)Cc1ccccc1 [Example 8761, 2-(N-t-butylbenzyl)aminoethyl-2-benzothienylketone] | higher than SOCE-inhibiting activity | strongly |
| CCN(CCC(=O)c1nccs1)Cc1ccccc1 [Example 8765, 2-(N-ethylbenzyl)aminoethyl-2-thiazolylketone] | higher than SOCE-inhibiting activity | strongly |
| O=C(CCN(CCO)Cc1ccccc1)c1nccs1 [Example 8766, 2-(N-2-hydroxyethylbenzyl)aminoethyl-2-thiazolylketone] | higher than SOCE-inhibiting activity | strongly |
| CC(C)N(CCC(=O)c1ccc(Br)s1)Cc1ccccc1 [Example 8768, 2-(N-isopropylbenzyl)aminoethyl-5-bromo-2-thienylketone] | higher than SOCE-inhibiting activity | strongly |
| CCCCN(CCO)CCC(=O)c1ccc(Br)s1 [Example 8769, 2-(N-2-hydroxyethylbutyl)aminoethyl-5-bromo-2-thienylketone] | higher than SOCE-inhibiting activity | strongly |
